Test results taken from PubChem BioAssay AID2060883 (Molecular Pharmacology Branch, DTP, NCI, 2025).
pIC50: −log10 of the molar value.

Tested on: 843782-103-R-J1-PDC complex spheroid viability
Assay: Anticancer human tumor 843782-103-R-J1-PDC patient-derived lung adenocarcinoma cell line growth inhibition [RAS]
Details: for pIC50: curve of first compound; for viability, T/C: stronger effect = lower value; active = viability on the fitted dose curve at most 10% of control; inactive = the rest
Outline: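 Tumour cells grown as complex spheroids with HUVEC endothelial cells and mesenchymal stem cells, treated with RAS pathway inhibitor combinations. Each agent spans half-log steps from near clinical Cmax, or 10 microM where Cmax is unknown.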

[1] = second compound 0.000949 µM, first compound 0.0316 µM
[2] = second compound 0.000949 µM, first compound 0.1 µM
[3] = second compound 0.000949 µM, first compound 0.316 µM
[4] = second compound 0.000949 µM, first compound 1 µM
[5] = second compound 0.003 µM, first compound 0.0316 µM
[6] = second compound 0.003 µM, first compound 0.1 µM
[7] = second compound 0.003 µM, first compound 0.316 µM
[8] = second compound 0.003 µM, first compound 1 µM
[9] = second compound 0.00949 µM, first compound 0.0316 µM
[10] = second compound 0.00949 µM, first compound 0.1 µM
[11] = second compound 0.00949 µM, first compound 0.316 µM
[12] = second compound 0.00949 µM, first compound 1 µM
[13] = second compound 0.03 µM, first compound 0.0316 µM
[14] = second compound 0.03 µM, first compound 0.1 µM
[15] = second compound 0.03 µM, first compound 0.316 µM
[16] = second compound 0.03 µM, first compound 1 µM
[17] = second compound 0.0949 µM, first compound 0.0316 µM
[18] = second compound 0.0949 µM, first compound 0.1 µM
[19] = second compound 0.0949 µM, first compound 0.316 µM
[20] = second compound 0.0949 µM, first compound 1 µM
[21] = second compound 0.3 µM, first compound 0.0316 µM
[22] = second compound 0.3 µM, first compound 0.1 µM
[23] = second compound 0.3 µM, first compound 0.316 µM
[24] = second compound 0.3 µM, first compound 1 µM
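Also: viability read after seven days of compound exposure.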

CCC(CC)c1cc(NC2CCC(N)C2)n2nccc2n1 (centres undefined) + CCn1c(-c2cccnc2C(C)OC)c2c3cc(ccc31)N1CCOC(CC(NC(=O)C(C(C)C)N(C)C(=O)C3(F)CCN(C(=O)C#CC(C)(C)N(C)C)CC3)C(=O)N3CCCC(N3)C(=O)OCC(C)(C)C2)C1
6.11: pIC50 (second compound 0.0949 µM)
5.99: pIC50 (second compound 0.000949 µM)
5.98: pIC50 (second compound 0.00949 µM)
6.05: pIC50 (second compound 0.3 µM)
5.97: pIC50 (second compound 0.03 µM)
active: viability, T/C (second compound 0.000949 µM, first compound 3.16 µM) 1.84% | viability, T/C (second compound 0.000949 µM, first compound 10 µM) 0.99% | viability, T/C (second compound 0.003 µM, first compound 3.16 µM) 1.8% | viability, T/C (second compound 0.003 µM, first compound 10 µM) 0.91% | viability, T/C (second compound 0.00949 µM, first compound 3.16 µM) 3.01% | viability, T/C (second compound 0.00949 µM, first compound 10 µM) 1.66% | viability, T/C (second compound 0.03 µM, first compound 3.16 µM) 1.5% | viability, T/C (second compound 0.03 µM, first compound 10 µM) 1.09% | viability, T/C (second compound 0.0949 µM, first compound 3.16 µM) 1.32% | viability, T/C (second compound 0.0949 µM, first compound 10 µM) 0.88% | viability, T/C (second compound 0.3 µM, first compound 3.16 µM) 1.4% | viability, T/C (second compound 0.3 µM, first compound 10 µM) 0.57%
inactive: viability, T/C [1] 70.7% | viability, T/C [2] 66.5% | viability, T/C [3] 73.8% | viability, T/C [4] 50.8% | viability, T/C [5] 70.5% | viability, T/C [6] 87% | viability, T/C [7] 67.8% | viability, T/C [8] 44.1% | viability, T/C [9] 73.5% | viability, T/C [10] 73.7% | viability, T/C [11] 78.1% | viability, T/C [12] 51.9% | viability, T/C [13] 78.4% | viability, T/C [14] 82.8% | viability, T/C [15] 71.9% | viability, T/C [16] 53.5% | viability, T/C [17] 74.6% | viability, T/C [18] 67.4% | viability, T/C [19] 65.7% | viability, T/C [20] 44.8% | viability, T/C [21] 77.3% | viability, T/C [22] 67.2% | viability, T/C [23] 61.8% | viability, T/C [24] 48.4%
6.12: pIC50 (second compound 0.003 µM)

CCN1CCN(Cc2ccc(Nc3ncc(F)c(-c4cc(F)c5nc(C)n(C(C)C)c5c4)n3)nc2)CC1 + CCn1c(-c2cc(N3CCN(C)CC3)cnc2C(C)OC)c2c3cc(ccc31)-c1csc(n1)CC(NC(=O)C1CC1C)C(=O)N1CCCC(N1)C(=O)OCC(C)(C)C2
> 8.50: pIC50 (second compound 0.00949 µM) | pIC50 (second compound 0.03 µM) | pIC50 (second compound 0.0949 µM) | pIC50 (second compound 0.3 µM)
inactive: viability, T/C (second compound 0.000949 µM, first compound 0.00316 µM) 79.5% | viability, T/C (second compound 0.000949 µM, first compound 0.01 µM) 83.1% | viability, T/C [1] 78.2% | viability, T/C [2] 73% | viability, T/C [3] 63.4% | viability, T/C [4] 34.5% | viability, T/C (second compound 0.003 µM, first compound 0.00316 µM) 64% | viability, T/C (second compound 0.003 µM, first compound 0.01 µM) 66.3% | viability, T/C [5] 57.1% | viability, T/C [6] 52.2% | viability, T/C [7] 41.8% | viability, T/C [8] 29.9% | viability, T/C (second compound 0.00949 µM, first compound 0.00316 µM) 45.9% | viability, T/C (second compound 0.00949 µM, first compound 0.01 µM) 42.9% | viability, T/C [9] 34.4% | viability, T/C [10] 31.1% | viability, T/C [11] 30.1% | viability, T/C [12] 20.8% | viability, T/C (second compound 0.03 µM, first compound 0.00316 µM) 24.5% | viability, T/C (second compound 0.03 µM, first compound 0.01 µM) 22.6% | viability, T/C [13] 21% | viability, T/C [14] 20% | viability, T/C [15] 18.2% | viability, T/C [16] 17% | viability, T/C (second compound 0.0949 µM, first compound 0.00316 µM) 17.9% | viability, T/C (second compound 0.0949 µM, first compound 0.01 µM) 16.1% | viability, T/C [17] 15.8% | viability, T/C [18] 15.2% | viability, T/C [19] 16.1% | viability, T/C [20] 14.2% | viability, T/C (second compound 0.3 µM, first compound 0.00316 µM) 17.1% | viability, T/C (second compound 0.3 µM, first compound 0.01 µM) 12.4% | viability, T/C [21] 14% | viability, T/C [22] 12.3% | viability, T/C [23] 13.9% | viability, T/C [24] 12.3%
6.27: pIC50 (second compound 0.000949 µM)
6.91: pIC50 (second compound 0.003 µM)
